# Experimental data published in US9765068B2, “PRMT5 inhibitors and uses thereof” (Epizyme, Inc., priority 2012, dated 2017).
# Biological target: PRMT5/MEP50 (Homo sapiens (Human), UniProt O14744)
# Test: PRMT5 Biochemical Assay (PRMT5/MEP50 enzyme assay on peptide substrate, 3H-SAM Flashplate)
# Conditions: PRMT5/MEP50 4 nM, 3H-SAM 75 nM, peptide 40 nM
# From the text: General Materials. S-adenosylmethionine (SAM), S-adenosylhomocysteine (SAH), bicine, KCl, Tween20, dimethylsulfoxide (DMSO), bovine skin gelatin (BSG), and Tris(2-carboxyethyl)phosphine hydrochloride solution (TCEP) were purchased from Sigma-Aldrich at the highest level of purity possible. ^3H-SAM was purchase from American Radiolabeled Chemicals with a specific activity of 80 Ci/mmol. 384-well streptavidin Flashplates were purchased from PerkinElmer.
# Substrates. Peptide representative of human histone H4 residues 1-15 was synthesized with a C-terminal linker-affinity tag motif and a C-terminal amide cap by 21st Century Biochemicals. […] The sequence was Ac-[…][K-Biot]-amide (SEQ ID NO.:3).
# Full-length human MEP50 (NM_024102) clone was amplified from a human testis cDNA library incorporating a 5′ sequence encoding a 6-histidine tag (MHHHHHH) (SEQ ID NO.:5) fused directly to Arg 2 of MEP50. The amplified genes were sublconed into pENTR/D/TEV (Life Technologies) and subsequently transferred by Gateway™ attL×attR recombination to pDEST8 baculvirus expression vector (Life Technologies).
# Protein Expression. Recombinant baculovirus and Baculovirus-Infected Insect Cells (BIIC) were generated according to Bac-to-Bac kit instructions (Life Technologies) and Wasilko, 2006, respectively. Protein over-expression was accomplished by infecting exponentially growing Spodoptera frugiperda (SF9) cell culture at 1.2×10^6 cell/ml with a 5000 fold dilution of BIIC stock. Infections were carried out at 27° C. for 72 hours, harvested by centrifugation, and stored at −80° C. for purification.
# Protein Purification. […] Flag-PRMT5/6His-MeP50 was eluted with 300 mM Imidazole in the same buffer. […] Reference: Wasilko, D. J. and S. E. Lee: “TIPS: titerless infected-cells preservation and scale-up” Bioprocess J., 5 (2006), pp. 29-32.
# General Procedure for PRMT5/MEP50 Enzyme Assays on Peptide Substrates.
# The assays were all performed in a buffer consisting of 20 mM Bicine (pH=7.6), 1 mM TCEP, 0.005% BSG, and 0.002% Tween20, prepared on the day of use. Compounds in 100% DMSO (1 ul) were spotted into a polypropylene 384-well V-bottom plates (Greiner) using a Platemate Plus outfitted with a 384-channel head (Thermo Scientific). DMSO (1 ul) was added to Columns 11, 12, 23, 24, rows A-H for the maximum signal control and 1 ul of SAH, a known product and inhibitor of PRMT5/MEP50, was added to columns 11, 12, 23, 24, rows I-P for the minimum signal control. A cocktail (40 ul) containing the PRMT5/MEP50 enzyme and the peptide was added by Multidrop Combi (Thermo-Fisher). The compounds were allowed to incubate with PRMT5/MEP50 for 30 min at 25 degrees Celsius, then a cocktail (10 ul) containing ^3H-SAM was added to initiate the reaction (final volume=51 ul). The final concentrations of the components were as follows: PRMT5/MEP50 was 4 nM, ^3H-SAM was 75 nM, peptide was 40 nM, SAH in the minimum signal control wells was 100 uM, and the DMSO concentration was 1%. The assays were stopped by the addition of non-radioactive SAM (10 ul) to a final concentration of 600 uM, which dilutes the ^3H-SAM to a level where its incorporation into the peptide substrate is no longer detectable. 50 ul of the reaction in the 384-well polypropylene plate was then transferred to a 384-well Flashplate and the biotinylated peptides were allowed to bind to the streptavidin surface for at least 1 hour before being washed three times with 0.1% Tween20 in a Biotek ELx405 plate washer. The plates were then read in a PerkinElmer TopCount plate reader to measure the quantity of ^3H-labeled peptide bound to the Flashplate surface, measured as disintegrations per minute (dpm) or alternatively, referred to as counts per minute (cpm).
# [formula] Where dpm=disintegrations per minute, cmpd=signal in assay well, and min and max are the respective minimum and maximum signal controls.
# Sequence of PRMT5/MEP50 (O14744 other isoform, or with tags, fused parts or gaps): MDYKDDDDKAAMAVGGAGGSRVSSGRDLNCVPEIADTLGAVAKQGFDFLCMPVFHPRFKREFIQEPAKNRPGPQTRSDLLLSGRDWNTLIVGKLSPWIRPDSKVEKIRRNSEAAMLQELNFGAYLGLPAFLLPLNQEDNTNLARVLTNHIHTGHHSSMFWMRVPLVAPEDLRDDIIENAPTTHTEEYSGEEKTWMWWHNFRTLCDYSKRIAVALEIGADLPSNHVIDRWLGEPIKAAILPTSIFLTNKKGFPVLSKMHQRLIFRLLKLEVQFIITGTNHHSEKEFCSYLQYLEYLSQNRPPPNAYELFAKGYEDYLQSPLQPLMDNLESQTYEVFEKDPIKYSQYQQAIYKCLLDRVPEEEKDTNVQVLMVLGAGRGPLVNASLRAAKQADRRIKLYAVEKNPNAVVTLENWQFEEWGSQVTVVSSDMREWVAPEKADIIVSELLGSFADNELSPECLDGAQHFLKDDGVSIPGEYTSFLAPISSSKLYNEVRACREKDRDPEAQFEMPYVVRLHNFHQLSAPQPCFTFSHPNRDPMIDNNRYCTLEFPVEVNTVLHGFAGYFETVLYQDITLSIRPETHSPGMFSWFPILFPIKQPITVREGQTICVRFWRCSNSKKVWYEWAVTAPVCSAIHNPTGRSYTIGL
# Sequence of PRMT5/MEP50 (Q9BQA1 other isoform, or with tags, fused parts or gaps partner): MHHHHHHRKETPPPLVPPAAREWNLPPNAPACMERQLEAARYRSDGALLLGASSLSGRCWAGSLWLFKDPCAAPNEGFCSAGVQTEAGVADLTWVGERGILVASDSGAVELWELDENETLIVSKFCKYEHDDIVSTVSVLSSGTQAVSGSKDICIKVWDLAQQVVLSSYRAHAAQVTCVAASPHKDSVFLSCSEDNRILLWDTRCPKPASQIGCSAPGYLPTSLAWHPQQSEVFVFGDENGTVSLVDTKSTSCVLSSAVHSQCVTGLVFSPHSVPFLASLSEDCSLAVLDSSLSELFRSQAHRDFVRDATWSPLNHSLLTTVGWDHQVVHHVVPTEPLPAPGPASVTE
row,Compound,IC50 [nM]
1,"O=C(Cc1cccc2cccnc12)NCC(O)CN1CCc2ccccc2C1 (stereo not shown) [Compound 60, N-(3-(3,4-dihydroisoquinolin-2(1H)-yl)-2-hydroxypropyl)-2-(quinolin-8-yl)acetamide]",101 to 1000
2,"O=C(COc1cccc(F)c1)NCC(O)CN1CCc2ccccc2C1 (stereo not shown) [Compound 7, N-(3-(3,4-dihydroisoquinolin-2(1H)-yl)-2-hydroxypropyl)-2-(3-fluorophenoxy)acetamide]",101 to 1000
3,O=C(CNc1ccccc1)NCC(O)CN1CCc2ccccc2C1 (stereo not shown) [Compound 18],1000 to 10000
4,"N#Cc1cccc(OCC(=O)NCC(O)CN2CCc3ccccc3C2)c1 (stereo not shown) [Compound 8, 2-(3-cyanophenoxy)-N-(3-(3,4-dihydroisoquinolin-2(1H)-yl)-2-hydroxypropyl)acetamide]",101 to 1000
5,"O=C(COc1ccccc1)NCC(O)CN1CCc2ccccc2C1 (stereo not shown) [Compound 1, N-(3-(3,4-dihydroisoquinolin-2(1H)-yl)-2-hydroxypropyl)-2-phenoxyacetamide]",101 to 1000
6,N#Cc1ccccc1OCC(=O)NCC(O)CN1CCc2ccccc2C1 (stereo not shown) [Compound 17],101 to 1000
7,"CC(C)(Oc1ccccc1)C(=O)NCC(O)CN1CCc2ccccc2C1 (stereo not shown) [Compound 25, N-(3-(3,4-dihydroisoquinolin-2(1H)-yl)-2-hydroxypropyl)-2-methyl-2-phenoxypropanamide]",101 to 1000
8,Cn1ccnc1-c1ccccc1OCC(=O)NCC(O)CN1CCc2ccccc2C1 (stereo not shown) [Compound 138],101 to 1000
9,NS(=O)(=O)c1cccc(OCC(=O)NCC(O)CN2CCc3ccccc3C2)c1 (stereo not shown) [Compound 131],1000 to 10000
10,CS(=O)(=O)c1ccc(OCC(=O)NCC(O)CN2CCc3ccccc3C2)cc1 (stereo not shown) [Compound 14],1000 to 10000
11,CS(=O)(=O)Nc1ccc(OCC(=O)NCC(O)CN2CCc3ccccc3C2)cc1 (stereo not shown) [Compound 42],101 to 1000
12,CS(=O)(=O)Nc1cccnc1OCC(=O)NCC(O)CN1CCc2ccccc2C1 (stereo not shown) [Compound 140],1000 to 10000
13,CN1CCC(c2ccccc2OCC(=O)NCC(O)CN2CCc3ccccc3C2)CC1 (stereo not shown) [Compound 134],101 to 1000
14,O=C(COc1ccccc1-c1ncc[nH]1)NCC(O)CN1CCc2ccccc2C1 (stereo not shown) [Compound 137],101 to 1000
15,CN1CC(c2ccccc2OCC(=O)NCC(O)CN2CCc3ccccc3C2)C1 (stereo not shown) [Compound 135],1000 to 10000
16,O=C(COc1cccc(C(=O)N2CCOCC2)c1)NCC(O)CN1CCc2ccccc2C1 (stereo not shown) [Compound 83],101 to 1000
17,CN1CCCc2c(OCC(=O)NCC(O)CN3CCc4ccccc4C3)cccc21 (stereo not shown) [Compound 151],101 to 1000
18,O=C(Cc1ccccc1)NC[C@@H](O)CN1CCc2ccccc2C1 [Compound 57],10000 to 50000
19,O=C(COc1ccccc1C1CNC1)NCC(O)CN1CCc2ccccc2C1 (stereo not shown) [Compound 132],1000 to 10000
20,NS(=O)(=O)c1ccc(OCC(=O)NCC(O)CN2CCc3ccccc3C2)cc1 (stereo not shown) [Compound 52],1000 to 10000
21,O=C(COc1ccccc1OCCN1CCOCC1)NC[C@@H](O)CN1CCc2ccccc2C1 [Compound 87],1000 to 10000
22,O=C(COc1cccc2c1CCCN2)NCC(O)CN1CCc2ccccc2C1 (stereo not shown) [Compound 150],101 to 1000
